In BindingDB's records for patent US20240270732 (Chengdu Biobel Biotechnology Co., 2024):
pIC50: −log10 of the molar value.

Molecular target: T1, Receptor-interacting serine/threonine-protein kinase 1 (Homo sapiens, UniProt Q13546)
T1 sequence (Q13546 whole entry): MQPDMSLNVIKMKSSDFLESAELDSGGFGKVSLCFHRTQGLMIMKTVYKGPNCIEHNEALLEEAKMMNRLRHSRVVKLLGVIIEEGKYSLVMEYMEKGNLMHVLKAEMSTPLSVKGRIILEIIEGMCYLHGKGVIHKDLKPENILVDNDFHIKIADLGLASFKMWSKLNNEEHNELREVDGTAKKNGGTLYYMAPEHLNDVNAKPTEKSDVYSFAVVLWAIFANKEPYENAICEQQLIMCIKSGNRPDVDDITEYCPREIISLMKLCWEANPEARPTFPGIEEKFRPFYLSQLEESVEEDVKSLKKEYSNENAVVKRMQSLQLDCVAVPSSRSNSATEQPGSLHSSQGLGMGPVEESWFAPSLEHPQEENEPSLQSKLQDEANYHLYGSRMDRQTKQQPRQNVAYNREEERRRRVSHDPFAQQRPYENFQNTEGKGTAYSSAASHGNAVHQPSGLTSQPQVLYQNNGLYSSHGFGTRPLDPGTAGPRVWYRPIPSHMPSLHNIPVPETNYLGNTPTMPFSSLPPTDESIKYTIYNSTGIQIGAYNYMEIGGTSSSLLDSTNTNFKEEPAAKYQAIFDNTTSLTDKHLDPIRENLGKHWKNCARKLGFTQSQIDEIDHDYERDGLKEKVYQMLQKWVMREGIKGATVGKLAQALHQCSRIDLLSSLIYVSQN
Assay: Inhibitory Activity Assay
How it was run: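 Compounds were titrated 22-point, 1:1.5 from 2 μM top concentration, in 50 mM Hepes pH 7.5, 50 mM NaCl, 30 mM MgCl2, 1 mM DTT, 0.02% CHAPS, 0.5 mg/mL BSA. After the kinase reaction, ADP-Glo reagent was added for 1 h at room temperature, then detection solution for 30 min, and luminescence was read.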

SMILES	pIC50
C[C@@H]1Oc2ccc(C#CCN3CCN(CC#Cc4ccc5c(c4)N(C)C(=O)[C@@H](NC(=O)c4n[nH]c(Cc6ccccc6)n4)[C@H](C)O5)CC3)cc2N(C)C(=O)[C@H]1NC(=O)c1n[nH]c(Cc2ccccc2)n1 [US20240270732, Compound I-19]	7.21
C#CCN1CCN(CC#Cc2ccc3c(c2)N(C)C(=O)[C@@H](NC(=O)c2cc(Cc4ccccc4)on2)[C@@H](C)O3)CC1 [US20240270732, Compound I-45]	7.85
C#CCN1CCN(CC#Cc2ccc3c(c2)N(C)C(=O)[C@@H](NC(=O)c2n[nH]c(Cc4ccncc4)n2)[C@@H](C)O3)CC1 [US20240270732, Compound I-65]	7.68
CN1C(=O)[C@@H](NC(=O)c2n[nH]c(Cc3ccccc3)n2)COc2ccc(CCCN3CCN(CCCc4ccc5c(c4)N(C)C(=O)[C@@H](NC(=O)c4n[nH]c(Cc6ccccc6)n4)CO5)CC3)cc21 [US20240270732, Compound I-123]	8.50
